The values that follow come from patent US20230085803A1, “METHOD FOR SEARCHING AND SCREENING FOR TARGET OF ANTI-CANCER AGENT USING NON-HUMAN ANIMAL MODEL HAVING NOG ESTABLISHED CANCER CELL LINE TRANSPLANTED THEREIN” (CHUGAI SEIYAKU KABUSHIKI KAISHA, priority 2009, published 2023).

In assay [1] the test system is Well-differentiated adenocarcinoma (NOG-established colon cancer cell line). The assay can be described thus: Histopathology of tumor masses after 5-FU administration, well-differentiated adenocarcinoma transplanted into NOG mice. Format: in vivo, human. As to conditions: NOG mice transplanted with an NOG-established colon cancer cell line, after administration of 5-fluorouracil; legend does not name the line. An excerpt:
(§1) The present inventors used NOG-established cancer cell lines that had been established so as to meet the criterion that human colon cancer, stomach cancer, lung cancer, breast cancer, or pancreatic cancer can be transplanted or passaged over three or more generations in NOG mice (Fujii E. et al., Pathol Int. 2008; 58: 559-567). In this Example, NOG-established cancer cell lines were subcutaneously transplanted into NOG mice. 28 days after transplantation, the mice were dissected, and the implants were excised and fixed with 4% paraformaldehyde at 4° C. for 16 to 24 hours. Then, the fixed samples were embedded and sliced into thin section samples by the AMeX method (Fujii E. et al., Pathol Int. 2008; 58: 559-567). The tissues were stained by HE and immunohistochemistry (IHC). Anti-E-cadherin antibody (DakoCytomation) and anti-fibronectin antibody (DakoCytomation) were used as a primary antibody. The visualization was carried out by LSAB method using DAB (DAB Map kit, Roche Diagnostics).
(§2) Each NOG-established cancer cell line whose tissue morphology was (1) well-differentiated adenocarcinoma, (2) moderately-differentiated adenocarcinoma, or (3) poorly-differentiated adenocarcinoma in the donors' human colon cancer were subcutaneously transplanted into NOG mice. […]

The subject of assay [2] is moderately-differentiated adenocarcinoma (NOG-established colon cancer cell line). Briefly: Histopathology of tumor masses after 5-FU administration, moderately-differentiated adenocarcinoma transplanted into NOG mice. Format: in vivo, human. As to conditions: NOG mice transplanted with an NOG-established colon cancer cell line, after administration of 5-fluorouracil; legend does not name the line.
From the text: as §1, §2

In the case of `O=c1[nH]cc(F)c(=O)[nH]1` [5-FU, 5-fluorouracil], in assay [1], the “poorly-differentiated glandular ducts (histopathology, FIG. 13)” value is listed as “increase”. Also, the “budding structures (histopathology, FIG. 13)” value in assay [2] is listed as “decrease”.
